The target in assay [1] is T1, PPPDE2 (Homo sapiens, UniProt Q6ICB0).
T1 sequence (Q6ICB0 1-168): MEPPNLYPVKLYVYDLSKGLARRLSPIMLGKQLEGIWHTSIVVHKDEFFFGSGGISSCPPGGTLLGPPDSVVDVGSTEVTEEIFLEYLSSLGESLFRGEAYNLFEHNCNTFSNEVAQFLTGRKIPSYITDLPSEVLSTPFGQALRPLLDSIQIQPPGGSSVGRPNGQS
The experiment in a line: fluorogenic assay coupled to beta-glucosidase. Format: biochemical. Particulars: 10 μM substrate, 20 μg beta-glucosidase, pH 5.0, 37°C.

In assay [2] the target is PPPDE1 (Homo sapiens, UniProt Q9BSY9). Put plainly: fluorogenic assay coupled to beta-glucosidase. To be noted: 10 μM substrate, 20 μg beta-glucosidase, pH 5.0, 37°C. Format: biochemical.
Chain of PPPDE1 (Q9BSY9 whole entry): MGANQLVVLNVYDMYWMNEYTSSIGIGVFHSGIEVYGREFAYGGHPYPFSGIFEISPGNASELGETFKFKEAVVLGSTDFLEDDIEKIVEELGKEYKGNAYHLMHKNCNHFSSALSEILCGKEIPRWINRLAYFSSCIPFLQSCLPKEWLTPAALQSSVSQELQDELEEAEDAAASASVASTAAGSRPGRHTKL

Experimental findings from PMC9012467 (Science Advances, 2022) are described below.

The structures appear in SMILES notation.

As for `CCCCCCCCCCCCCCCC(=O)SC[C@H]1O[C@@H](Oc2ccc3c(C)cc(=O)oc3c2)[C@H](O)[C@@H](O)[C@@H]1O` [MU-6S-palm-βGlc, 4-methylumbelliferyl 6-thio-palmitate-β-D-glucopyranoside], the “fluorogenic assay coupled to beta-glucosidase” value in assay [1] and in assay [2] was “both showed high S-depalmitoylation activity by assaying DPP-5 or MU-6S-palm-βGlc” in each case.
